{"source": "paper PMC12337341", "about": "(Proceedings of the National Academy of Sciences of the …, 2025)", "assay_type_in_all_cases": "biochemical", "key": {"[1]": {"target": "T1, CRYL1 (Homo sapiens, UniProt Q9Y2S2)", "T1 sequence (Q9Y2S2 2-319)": "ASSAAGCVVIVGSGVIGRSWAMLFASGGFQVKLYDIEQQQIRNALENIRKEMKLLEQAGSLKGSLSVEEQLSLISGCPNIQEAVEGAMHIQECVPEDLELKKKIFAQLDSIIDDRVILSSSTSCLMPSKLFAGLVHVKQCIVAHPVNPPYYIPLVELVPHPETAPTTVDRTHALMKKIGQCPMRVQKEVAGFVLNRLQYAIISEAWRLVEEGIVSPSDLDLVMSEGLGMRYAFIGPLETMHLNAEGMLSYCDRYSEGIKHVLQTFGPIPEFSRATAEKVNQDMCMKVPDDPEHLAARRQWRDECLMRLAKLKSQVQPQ", "experiment": "NADH formation at […] nm", "conditions": "20 mM potassium phosphate, 37 °C, L-gulonate"}, "[2]": {"target": "DCXR (Homo sapiens, UniProt Q7Z4W1)", "sequence (Q7Z4W1 whole entry)": "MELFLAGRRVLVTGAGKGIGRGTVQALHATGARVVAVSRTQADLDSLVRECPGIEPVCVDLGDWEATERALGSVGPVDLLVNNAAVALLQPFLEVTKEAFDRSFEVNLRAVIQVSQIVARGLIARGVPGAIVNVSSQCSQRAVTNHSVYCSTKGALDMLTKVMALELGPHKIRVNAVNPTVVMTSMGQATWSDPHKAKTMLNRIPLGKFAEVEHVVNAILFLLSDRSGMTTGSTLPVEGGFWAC", "experiment": "1H NMR"}, "[3]": {"target": "T1, CRYL1", "experiment": "1H NMR, NADH at […] nm and UHPLC-HRMS of product BKG", "conditions": "20 mM potassium phosphate pH 7.9, 25 °C, NAD+ (NMR); oxidation at C3"}}}
{"smiles": "NC(=O)c1ccc[n+]([C@@H]2O[C@H](COP(=O)(O)OP(=O)(O)OC[C@H]3O[C@@H](n4cnc5c(N)ncnc54)[C@H](O)[C@@H]3O)[C@@H](O)[C@H]2O)c1", "note": "[NAD^+]", "values": [{"measurement": "NADH formation at 340 nm", "setting": "[1]", "value": "exploiting the equilibrium of the NAD-dependent reaction of CRYL1"}]}
{"smiles": "NC(=O)c1ccc[n+]([C@@H]2O[C@H](COP(=O)(O)OP(=O)(O)OC[C@H]3O[C@@H](n4cnc5c(N)ncnc54)[C@H](OP(=O)(O)O)[C@@H]3O)[C@@H](O)[C@H]2O)c1", "note": "[NADP+]", "values": [{"measurement": "1H NMR", "setting": "[2]; reverse reaction with xylitol, same", "value": "using DCXR in the reverse reaction with xylitol and NADP+ as substrates"}]}
{"smiles": "O=C(O)[C@@H](O)[C@@H](O)[C@H](O)[C@@H](O)CO", "note": "[L-gulonate]", "values": [{"measurement": "1H NMR, NADH at 340 nm and UHPLC-HRMS of product BKG", "setting": "[3]", "value": "the CRYL1 oxidation of L-gulonate at C3 is observed"}]}
{"smiles": "OC[C@@H](O)[C@H](O)[C@@H](O)CO", "note": "[xylitol]", "values": [{"measurement": "1H NMR", "setting": "[2]; reverse reaction with NADP+, 20 mM potassium phosphate pH 7.9, 25 °C", "value": "using DCXR in the reverse reaction with xylitol and NADP+ as substrates"}]}
